Data taken from ChEMBL document CHEMBL3352542, “Synthesis, biological evaluation and molecular modeling study of 2-(1,3,4-thiadiazolyl-thio and 4-methyl-thiazolyl-thio)-quinazolin-4-ones as a new class of DHFR inhibitors” (Bioorg Med Chem Lett, 2014).
Active and inactive are the calls of the source. The rule behind the calls is not given here.

Columns and labels:
MOLT-4 = assay: Growth inhibition of human MOLT4 cells at 10 uM after 48 hrs; assay type: functional
A549 = assay: Growth inhibition of human A549 cells at 10 uM after 48 hrs; assay type: functional
K562 = assay: Growth inhibition of human K562 cells at 10 uM after 48 hrs; assay type: functional
Dihydrofolate reductase = target: T1, Dihydrofolate reductase (Bos taurus, UniProt P00376); assay: Inhibition of bovine liver DHFR
T1 sequence (P00376 whole entry): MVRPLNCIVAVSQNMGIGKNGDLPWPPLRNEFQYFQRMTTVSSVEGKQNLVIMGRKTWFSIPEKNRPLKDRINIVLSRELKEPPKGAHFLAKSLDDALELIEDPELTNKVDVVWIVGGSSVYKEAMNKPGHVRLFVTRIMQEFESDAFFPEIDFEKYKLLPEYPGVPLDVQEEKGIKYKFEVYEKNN

786-0 = assay: Growth inhibition of human 786-0 cells at 10 uM after 48 hrs; assay type: functional
MCF7 = assay: Growth inhibition of human MCF7 cells at 10 uM after 48 hrs; assay type: functional
U-251 = assay: Growth inhibition of human U251 cells at 10 uM after 48 hrs; assay type: functional
RPMI-8226 = assay: Growth inhibition of human RPMI8226 cells at 10 uM after 48 hrs; assay type: functional
HCT-116 = assay: Growth inhibition of human HCT116 cells at 10 uM after 48 hrs; assay type: functional
KM12 = assay: Growth inhibition of human KM12 cells at 10 uM after 48 hrs; assay type: functional
MDA-MB-231 = assay: Growth inhibition of human MDA-MB-231 cells at 10 uM after 48 hrs; assay type: functional
HL-60(TB) = assay: Growth inhibition of human HL-60(TB) cells at 10 uM after 48 hrs; assay type: functional
SK-MEL-5 = assay: Growth inhibition of human SK-MEL-5 cells at 10 uM after 48 hrs; assay type: functional
HCT-15 = assay: Growth inhibition of human HCT15 cells at 10 uM after 48 hrs; assay type: functional
NCI-H522 = assay: Growth inhibition of human NCI-H522 cells at 10 uM after 48 hrs; assay type: functional
HOP-62 = assay: Growth inhibition of human HOP62 cells at 10 uM after 48 hrs; assay type: functional
HOP-92 = assay: Growth inhibition of human HOP92 cells at 10 uM after 48 hrs; assay type: functional
Bacillus subtilis = assay: Antimicrobial activity against Bacillus subtilis assessed as inhibition zone at 200 ug/disk after 24 hrs by disc-diffusion method; assay type: functional; conditions: read-out: IZ
HT-29 = assay: Growth inhibition of human HT-29 cells at 10 uM after 48 hrs; assay type: functional
SF-295 = assay: Growth inhibition of human SF295 cells at 10 uM after 48 hrs; assay type: functional
A498 = assay: Growth inhibition of human A498 cells at 10 uM after 48 hrs; assay type: functional
MDA-MB-468 = assay: Growth inhibition of human MDA-MB-468 cells at 10 uM after 48 hrs; assay type: functional
Hs-578T = assay: Growth inhibition of human Hs 578T cells at 10 uM after 48 hrs; assay type: functional
CAKI-1 = assay: Growth inhibition of human CAKI-1 cells at 10 uM after 48 hrs; assay type: functional
CCRF-CEM = assay: Growth inhibition of human CCRF-CEM cells at 10 uM after 48 hrs; assay type: functional
SK-MEL-28 = assay: Growth inhibition of human SK-MEL-28 cells at 10 uM after 48 hrs; assay type: functional, cell-based
Escherichia coli = assay: Antimicrobial activity against Escherichia coli assessed as inhibition zone at 200 ug/disk after 24 hrs by disc-diffusion method; assay type: functional; conditions: read-out: IZ
SF-539 = assay: Growth inhibition of human SF539 cells at 10 uM after 48 hrs; assay type: functional
UACC-62 = assay: Growth inhibition of human UACC62 cells at 10 uM after 48 hrs; assay type: functional
T47D = assay: Growth inhibition of human T47D cells at 10 uM after 48 hrs; assay type: functional
NCI-H226 = assay: Growth inhibition of human NCI-H226 cells at 10 uM after 48 hrs; assay type: functional
OVCAR-4 = assay: Growth inhibition of human OVCAR4 cells at 10 uM after 48 hrs; assay type: functional
SNB-19 = assay: Growth inhibition of human SNB19 cells at 10 uM after 48 hrs; assay type: functional
MDA-MB-435 = assay: Growth inhibition of human MDA-MB-435 cells at 10 uM after 48 hrs; assay type: functional
UACC-257 = assay: Growth inhibition of human UACC257 cells at 10 uM after 48 hrs; assay type: functional
RXF 393 = assay: Growth inhibition of human RXF393 cells at 10 uM after 48 hrs; assay type: functional
PC-3 = assay: Growth inhibition of human PC3 cells at 10 uM after 48 hrs; assay type: functional
UO-31 = assay: Growth inhibition of human UO31 cells at 10 uM after 48 hrs; assay type: functional
Staphylococcus aureus = assay: Antimicrobial activity against Staphylococcus aureus assessed as inhibition zone at 200 ug/disk after 24 hrs by disc-diffusion method; assay type: functional; conditions: read-out: IZ
Pseudomonas aeruginosa = assay: Antimicrobial activity against Pseudomonas aeruginosa assessed as inhibition zone at 200 ug/disk after 24 hrs by disc-diffusion method; assay type: functional; conditions: read-out: IZ
Malme-3M = assay: Growth inhibition of human MALME-3M cells at 10 uM after 48 hrs; assay type: functional
SR = assay: Growth inhibition of human SR cells at 10 uM after 48 hrs; assay type: functional
Candida albicans = assay: Antimicrobial activity against Candida albicans assessed as inhibition zone at 200 ug/disk after 24 hrs by disc-diffusion method; assay type: functional; conditions: read-out: IZ

COc1cc2nc(Sc3nnc(N)s3)n(-c3ccc(C)cc3)c(=O)c2cc1OC
growth inhibition (GI) (MOLT-4): inactive | growth inhibition (GI) (A549): inactive | growth inhibition (GI) (K562): inactive | IC50 (Dihydrofolate reductase): 1000 nM | growth inhibition (GI) (786-0): inactive | growth inhibition (GI) (MCF7): inactive | growth inhibition (GI) (U-251): inactive | growth inhibition (GI) (RPMI-8226): inactive | growth inhibition (GI) (HCT-116): inactive | growth inhibition (GI) (KM12): inactive | growth inhibition (GI) (MDA-MB-231): inactive | growth inhibition (GI) (HL-60(TB)): inactive | growth inhibition (GI) (SK-MEL-5): inactive | growth inhibition (GI) (HCT-15): inactive | growth inhibition (GI) (NCI-H522): inactive | growth inhibition (GI) (HOP-62): inactive | growth inhibition (GI) (HOP-92): inactive | zone of inhibition at 200 µg/disc (Bacillus subtilis): 15 mm | growth inhibition (GI) (HT-29): inactive | growth inhibition (GI) (SF-295): inactive | growth inhibition (GI) (A498): inactive | growth inhibition (GI) (MDA-MB-468): inactive | growth inhibition (GI) (Hs-578T): inactive | growth inhibition (GI) (CAKI-1): inactive | growth inhibition (GI) (CCRF-CEM): inactive | growth inhibition (GI) (SK-MEL-28): inactive | zone of inhibition at 200 µg/disc (Escherichia coli): 8 mm | growth inhibition (GI) (SF-539): inactive | growth inhibition (GI) (UACC-62): inactive | growth inhibition (GI) (T47D): inactive | growth inhibition (GI) (NCI-H226): inactive | growth inhibition (GI) (OVCAR-4): inactive | growth inhibition (GI) (SNB-19): inactive | growth inhibition (GI) (MDA-MB-435): inactive | growth inhibition (GI) (UACC-257): inactive | growth inhibition (GI) (RXF 393): inactive | growth inhibition (GI) (PC-3): inactive | growth inhibition (GI) (UO-31): inactive | zone of inhibition at 200 µg/disc (Staphylococcus aureus): 14 mm | zone of inhibition at 200 µg/disc (Pseudomonas aeruginosa): 8 mm | growth inhibition (GI) (Malme-3M): inactive | growth inhibition (GI) (SR): inactive | zone of inhibition at 200 µg/disc (Candida albicans): 8 mm

Cc1ccc2nc(Sc3nnc(N)s3)n(-c3ccc(Oc4ccccc4)cc3)c(=O)c2c1
growth inhibition (GI) (MOLT-4): inactive | growth inhibition (GI) (A549): inactive | growth inhibition (GI) (K562): inactive | IC50 (Dihydrofolate reductase): 100 nM | growth inhibition (GI) (786-0): inactive | growth inhibition (GI) (MCF7): inactive | growth inhibition (GI) (U-251): inactive | growth inhibition (GI) (RPMI-8226): inactive | growth inhibition (GI) (HCT-116): inactive | growth inhibition (GI) (KM12): inactive | growth inhibition (GI) (MDA-MB-231): inactive | growth inhibition (GI) (HL-60(TB)): inactive | growth inhibition (GI) (SK-MEL-5): inactive | growth inhibition (GI) (HCT-15): inactive | growth inhibition (GI) (NCI-H522): inactive | growth inhibition (GI) (HOP-62): inactive | growth inhibition (GI) (HOP-92): inactive | zone of inhibition at 200 µg/disc (Bacillus subtilis): 8 mm | growth inhibition (GI) (HT-29): inactive | growth inhibition (GI) (SF-295): inactive | growth inhibition (GI) (A498): inactive | growth inhibition (GI) (MDA-MB-468): inactive | growth inhibition (GI) (Hs-578T): inactive | growth inhibition (GI) (CAKI-1): inactive | growth inhibition (GI) (CCRF-CEM): inactive | growth inhibition (GI) (SK-MEL-28): inactive | zone of inhibition at 200 µg/disc (Escherichia coli): 8 mm | growth inhibition (GI) (SF-539): inactive | growth inhibition (GI) (UACC-62): inactive | growth inhibition (GI) (T47D): inactive | growth inhibition (GI) (NCI-H226): inactive | growth inhibition (GI) (OVCAR-4): inactive | growth inhibition (GI) (SNB-19): inactive | growth inhibition (GI) (MDA-MB-435): inactive | growth inhibition (GI) (UACC-257): inactive | growth inhibition (GI) (RXF 393): inactive | growth inhibition (GI) (PC-3): inactive | growth inhibition (GI) (UO-31): inactive | zone of inhibition at 200 µg/disc (Staphylococcus aureus): 8 mm | zone of inhibition at 200 µg/disc (Pseudomonas aeruginosa): 8 mm | growth inhibition (GI) (Malme-3M): inactive | growth inhibition (GI) (SR): inactive | zone of inhibition at 200 µg/disc (Candida albicans): 8 mm
